The target in one assay is Histamine H3 receptor (Cavia porcellus, UniProt Q9JI35). The assay is described as follows: Binding affinity against H3 receptor in guinea pig brain using [3H]N-alpha-methyl histamine as radioligand.
The target of assay [1] is Histamine H1 receptor (Rattus norvegicus) (UniProt P31390). Briefly: Ability to displace [3H]pyrilamine from histamine H1 receptor in male Sprague-Dawley rat brain membranes at 1 ug/mL. The class given is tissue-based. The settings on record: Membrane.
Another assay addresses Histamine H1 receptor (Rattus norvegicus, UniProt P31390). The assay is described as follows: Ability to displace [3H]pyrilamine from histamine H1 receptor in male Sprague-Dawley rat brain membranes. The class given is tissue-based, Membrane.

Sequence of Histamine H3 receptor (Q9JI35 whole entry): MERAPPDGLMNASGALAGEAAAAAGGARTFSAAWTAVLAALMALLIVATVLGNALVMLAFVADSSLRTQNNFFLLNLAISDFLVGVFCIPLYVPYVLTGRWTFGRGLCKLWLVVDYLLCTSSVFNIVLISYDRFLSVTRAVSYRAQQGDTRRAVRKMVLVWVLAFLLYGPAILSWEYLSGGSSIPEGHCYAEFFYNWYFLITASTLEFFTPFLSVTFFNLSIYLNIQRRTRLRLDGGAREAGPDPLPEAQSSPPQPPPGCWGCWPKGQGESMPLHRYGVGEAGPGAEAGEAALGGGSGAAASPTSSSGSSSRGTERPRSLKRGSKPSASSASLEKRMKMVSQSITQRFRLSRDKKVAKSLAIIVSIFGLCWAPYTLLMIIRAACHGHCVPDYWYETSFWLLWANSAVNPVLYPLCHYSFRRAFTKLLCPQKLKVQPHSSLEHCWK
Sequence of Histamine H1 receptor (Rattus norvegicus) (P31390 whole entry): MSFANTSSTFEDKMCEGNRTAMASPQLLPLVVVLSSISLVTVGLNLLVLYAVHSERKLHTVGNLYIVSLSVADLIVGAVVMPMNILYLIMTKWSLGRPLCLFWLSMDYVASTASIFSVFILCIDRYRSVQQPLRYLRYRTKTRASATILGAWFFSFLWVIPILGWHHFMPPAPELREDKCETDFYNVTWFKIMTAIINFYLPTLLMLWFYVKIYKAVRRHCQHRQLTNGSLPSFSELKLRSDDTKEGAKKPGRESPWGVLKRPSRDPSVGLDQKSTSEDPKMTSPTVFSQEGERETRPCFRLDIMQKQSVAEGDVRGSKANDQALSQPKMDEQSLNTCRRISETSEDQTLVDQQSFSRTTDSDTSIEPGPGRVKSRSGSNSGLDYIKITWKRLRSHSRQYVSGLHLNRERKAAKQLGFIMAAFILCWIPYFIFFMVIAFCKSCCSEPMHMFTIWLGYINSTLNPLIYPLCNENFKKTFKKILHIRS
Sequence of Histamine H1 receptor (P31390 whole entry): as above

As usually defined, the Ki is the dissociation constant of the complex between target and ligand, obtained from inhibition or displacement. The low end stands for a stronger hold on the target, the high end for a looser hold on the target. Usually inhibition stands for the share of the control response that was lost under treatment. Higher therefore signals strong suppression. As to `c1ccc(C(CCNCCCCc2c[nH]cn2)c2ccccn2)nc1`, affinity on Histamine H3 receptor was put at a Ki of 4 nM. In assay [1], this molecule gave an inhibition of less than 50%.

Turning to `O=C(CC(c1ccccn1)c1ccccn1)NCCCCc1c[nH]cn1`, the inhibitory constant (Ki) at Histamine H3 receptor is 1 nM. This molecule also registered an inhibition in assay [1] of less than 50%.

Molecule `CN(CCC(c1ccc(Cl)cc1)c1ccccn1)C(=O)CCc1c[nH]cn1` (stereo not given) returned an inhibition in assay [1] of less than 50%.

`O=C(CCc1c[nH]cn1)NCCC(c1ccc(Cl)cc1)c1ccccn1` (stereo not given) registered an inhibition in assay [1] of less than 50%.

For the molecule `CN(CCCCCc1c[nH]cn1)CCC(c1ccc(Cl)cc1)c1ccccn1` (stereo not given), the results for the inhibition constant Ki on Histamine H1 receptor and on Histamine H3 receptor were 6 nM and 50 nM, respectively.

Consider `N=C(CC(c1ccc(Cl)cc1)c1ccccn1)NCCc1c[nH]cn1` (stereo not given), for which the inhibition in assay [1] is less than 50%.

In the case of `O=C(CC(c1ccc(Cl)cc1)c1ccccn1)NCCCCc1c[nH]cn1` (stereo not given), the inhibition constant (Ki) at Histamine H3 receptor was determined as 1 nM. Also, the inhibition in assay [1] was less than 50%.

For the molecule `O=C(CC(c1ccc(Cl)cc1)c1ccccn1)NCCc1c[nH]cn1` (stereo not given), in assay [1], the inhibition is less than 50%.

`Clc1ccc(C(CCNCCCc2c[nH]cn2)c2ccccn2)cc1` (stereo not given) had an inhibition in assay [1] of less than 50%.

`CN(CCCCc1c[nH]cn1)C(=O)CC(c1ccc(Cl)cc1)c1ccccn1` (stereo not given): at Histamine H3 receptor, the Ki was 7 nM. Moreover, the inhibition in assay [1] was less than 50%.

On to `O=C(NCCCCc1cnc[nH]1)NCCC(c1ccc(Cl)cc1)c1ccccn1` (stereo not given), for which the inhibitory constant (Ki) is 920 nM on Histamine H1 receptor and 23 nM on Histamine H3 receptor.

`CN(CCc1c[nH]cn1)C(=O)CC(c1ccc(Cl)cc1)c1ccccn1` (stereo not given) had an inhibition in assay [1] of less than 50%.

As for `Clc1ccc(C(CCNCCCCCc2cnc[nH]2)c2ccccn2)cc1` (stereo not given), the results for the Ki on Histamine H1 receptor and at Histamine H3 receptor were 39 nM and 33 nM, respectively.
